Consider six compounds from PMC8510812, “Studies on the Incompatibility between Bulbus fritillariae and Radix aconiti praeparata Based on the P-gp” (Evidence-based Complementary and Alternative Medicine : eCAM, 2021).

Read-outs that look alike come from different tables or passages of the source.

For data set [1], the system named is P-gp. The class given is in vivo, rat. The note with it: in the presence of verapamil, n = 6, Figure 10. The protocol: (§1) Rats were anaesthetized by an intraperitoneal injection of urethane and then placed on a heated pad. The small intestine was exposed by surgery. 10 cm of the ileum segment was ligated and cannulated with glass tubing for perfusion. Caroline et al. reported that the level of P-gp expression in rat ileum was the highest. In order to better reflect the characteristics of P-gp, we selected the ileum segment. The cannulated segment was rinsed with saline (37°C), and attached to the perfusion assembly consisted of a syringe pump and a 50 ml syringe. The selected ileum was placed as “U” shape and covered with the gauze wet by saline. The perfusate was collected every 10 min at a flow rate of 0.2 ml/min for 90 min. The perfused intestine segment was removed and opened along the mesentery to measure the area. Samples were frozen immediately and stored at -20°C until analysis. Digoxin, an exclusive substrate of P-gp, was chosen as the FDA guidelines.
The concentrations of drugs in SPIP experiment were determined by HPLC. A MS-C18 column (5 μm, 4.6 mm × 150 mm, Agilent, USA) with an analytical TC-C18 guard column (5 μm, 4.6 mm × 12.5 mm, Agilent, USA) was maintained at 30°C. […] Digoxin was detected by absorbance at 220 nm and benzoylaconine, benzoylmesaconine, and benzoylhypacoitine at 235 nm.
P eff was calculated by the following equation:(1) Peff=−QinlnCoutQout/CinQin/2πrL. […]

The subject of data set [2] is ileum. Nature of the data set: Rat SPIP, Peff of monoester alkaloids in Radix aconiti praeparata extract with or without Bulbus fritillariae. The class given is in vivo. The note with it: n = 6, Figure 3. The protocol:
as §1
The concentrations of drugs in SPIP experiment were determined by HPLC. A MS-C18 column (5 μm, 4.6 mm × 150 mm, Agilent, USA) with an analytical TC-C18 guard column (5 μm, 4.6 mm × 12.5 mm, Agilent, USA) was maintained at 30°C. The analytical mobile phase about digoxin consisted of water and acetonitrile in a 75 : 25 (v/v) ratio. Benzoylaconine, benzoylmesaconine, and benzoylhypacoitine consisted of 0.05% acetic acid and methanol in a gradient from 85 : 15 to 55 : 45 (v/v) ratio. The flow rate was 1 mL/min. The injection volume was 10 µL. Digoxin was detected by absorbance at 220 nm and benzoylaconine, benzoylmesaconine, and benzoylhypacoitine at 235 nm.
P eff was calculated by the following equation:(1) Peff=−QinlnCoutQout/CinQin/2πrL. Here, Qin and Qout were the flow rate at inlet and outlet, respectively. Cin and Cout were the concentration at inlet and outlet, respectively. 2πrL was the mass transfer surface area within the intestinal segment, which was assumed to be the area of the cylinder with the radius (r) and length (L).

Data set [3] concerns the target T1, P-gp (Homo sapiens, UniProt P08183).
T1 construct: host or cells: MDR1-MDCK cells
The class given is cell-based. The note with it: MDR1-MDCK cells, n = 3.
Method: MDR1-MDCK cells, obtained from the College of Pharmaceutical Sciences in Zhejiang University (China), were cultured in DMEM containing 10% FBS, 100 µg/mL-100 U/mL penicillin-streptomycin, and 1% NEAA at 37°C in an atmosphere of 5% CO2 and 95% relative humidity. Cells were passaged at 80%–90% conﬂuence. P-gp inhibitors were screened by MDR1-MDCK cell transport study using the calcein-AM kit. Briefly, the cells were seeded in a 96-well black opaque plate and cultured for 48 h. Then, the cells were washed twice with PBS. 100 µL drug and 50 µL culture medium was added and preincubated at 37°C for 10 min. 50 µL 1 µM calcein-AM was added and incubated at 37°C for 1 h. Cold PBS was used to terminate the reaction. 100 µL 0.1% Triton-100 was added for cell permeability.
RFR was calculated by (4) RFR=RFU TS/RFU CS×100%. Here, RFU TS was the RFU of the test sample and RFU CS was the RFU of the control sample.

T1 sequence (P08183 whole entry): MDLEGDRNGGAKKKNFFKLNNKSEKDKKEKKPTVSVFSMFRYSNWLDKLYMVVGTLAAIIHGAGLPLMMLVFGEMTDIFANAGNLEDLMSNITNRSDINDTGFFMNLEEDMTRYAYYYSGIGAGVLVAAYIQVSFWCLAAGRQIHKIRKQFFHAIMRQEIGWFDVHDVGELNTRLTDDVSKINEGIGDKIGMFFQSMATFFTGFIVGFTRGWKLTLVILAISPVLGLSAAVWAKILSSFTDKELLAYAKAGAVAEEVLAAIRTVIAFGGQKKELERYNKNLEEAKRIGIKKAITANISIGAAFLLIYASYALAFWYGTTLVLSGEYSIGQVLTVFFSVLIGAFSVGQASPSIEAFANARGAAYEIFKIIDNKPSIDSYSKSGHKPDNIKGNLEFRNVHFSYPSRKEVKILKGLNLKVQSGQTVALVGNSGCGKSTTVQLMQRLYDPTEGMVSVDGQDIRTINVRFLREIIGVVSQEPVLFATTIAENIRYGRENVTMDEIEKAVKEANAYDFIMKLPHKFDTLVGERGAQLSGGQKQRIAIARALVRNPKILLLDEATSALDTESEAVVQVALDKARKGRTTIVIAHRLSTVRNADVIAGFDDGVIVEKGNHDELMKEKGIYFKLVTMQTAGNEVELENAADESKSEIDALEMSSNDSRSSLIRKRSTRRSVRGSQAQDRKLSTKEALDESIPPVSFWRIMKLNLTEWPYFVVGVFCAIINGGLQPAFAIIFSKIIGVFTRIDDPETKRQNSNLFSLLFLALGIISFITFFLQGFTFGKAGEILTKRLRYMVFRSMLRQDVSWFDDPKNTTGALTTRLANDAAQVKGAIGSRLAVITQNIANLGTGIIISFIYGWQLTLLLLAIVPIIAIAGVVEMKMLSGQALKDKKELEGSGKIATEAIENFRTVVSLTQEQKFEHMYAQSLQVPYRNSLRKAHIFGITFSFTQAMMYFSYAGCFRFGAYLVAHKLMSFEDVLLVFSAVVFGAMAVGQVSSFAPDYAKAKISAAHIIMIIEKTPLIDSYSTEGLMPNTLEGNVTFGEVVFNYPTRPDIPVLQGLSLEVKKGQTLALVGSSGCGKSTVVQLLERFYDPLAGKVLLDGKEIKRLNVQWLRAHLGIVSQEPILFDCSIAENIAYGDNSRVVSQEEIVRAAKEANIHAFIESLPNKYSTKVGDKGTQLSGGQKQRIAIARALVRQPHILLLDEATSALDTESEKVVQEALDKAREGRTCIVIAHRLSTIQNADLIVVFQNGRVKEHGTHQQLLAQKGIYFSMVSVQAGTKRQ

In the case of `CCN1C[C@]2(COC)[C@H](O)C[C@H](OC)[C@@]34[C@@H]5C[C@@]6(O)[C@H](OC(=O)c7ccccc7)[C@@H]5[C@@](O)([C@@H]([C@H](OC)[C@H]23)[C@@H]14)[C@@H](O)[C@@H]6OC` [Benzoylaconine], the “Peff of monoester alkaloid in Radix aconiti praeparata extract versus that supplemented with verapamil” value in data set [1] is reported as “No significant differences”. For the same compound, in data set [2], the “Peff of monoester alkaloid in Radix aconiti praeparata extract versus Radix aconiti praeparata + Bulbus fritillariae cirrhosae extract” value is reported as “No significant differences” and the “Peff of monoester alkaloid in Radix aconiti praeparata extract versus Radix aconiti praeparata + Bulbus fritillariae thunbergii extract” value is on record as “No significant differences”.

As for `COC[C@@]12CC[C@H](OC)[C@]34C([C@H]([C@H](OC)[C@H]13)[C@]1(O)[C@H]3[C@@H](OC(=O)c5ccccc5)[C@](O)(C[C@H]34)[C@@H](OC)[C@@H]1O)N(C)C2` [Benzoylhypacoitine], the “Peff of monoester alkaloid in Radix aconiti praeparata extract versus that supplemented with verapamil” value in data set [1] is “No significant differences”. Besides, in data set [2], the “Peff of monoester alkaloid in Radix aconiti praeparata extract versus Radix aconiti praeparata + Bulbus fritillariae cirrhosae extract” value is “No significant differences” and the “Peff of monoester alkaloid in Radix aconiti praeparata extract versus Radix aconiti praeparata + Bulbus fritillariae thunbergii extract” value is recorded as “No significant differences”.

On to `COC[C@]12CN(C)C3[C@@H]4[C@H](OC)[C@H]1[C@@]3([C@@H](OC)C[C@H]2O)[C@@H]1C[C@@]2(O)[C@H](OC(=O)c3ccccc3)[C@@H]1[C@]4(O)[C@@H](O)[C@@H]2OC` [Benzoylmesaconine], for which, in data set [2], the “Peff of monoester alkaloid in Radix aconiti praeparata extract versus Radix aconiti praeparata + Bulbus fritillariae cirrhosae extract” value is given as “significant differences”.

Consider `C[C@H]1CC[C@@H]2N(C1)C[C@H]1[C@@H]3C[C@H]4[C@@H](C[C@H](O)[C@H]5C[C@@H](O)CC[C@@]54C)[C@@H]3CC[C@@H]1[C@]2(C)O` [Peimine], for which the entries for the “RFR of calcein versus control group” value in data set [3] (high-dose group) and in data set [3] (low-dose group) were “highly significant differences” and “no significant differences”, respectively.

As to `C[C@H]1CCC2N(C1)C[C@H]1C3CC4[C@@H](CC(=O)C5C[C@@H](O)CC[C@@]54C)C3CCC1[C@]2(C)O` (stereo partly shown) [Peiminine], the “RFR of calcein versus control group” value in data set [3] (high-dose group) and in data set [3] (low-dose group) was “no significant differences” throughout.

With `CC1=C2C[C@H]3[C@@H](CC(=O)[C@H]4C[C@@H](O)CC[C@@]43C)[C@@H]2CC[C@]12O[C@@H]1C[C@H](C)CN[C@H]1[C@H]2C` [Peimisine], the “RFR of calcein versus control group” value in data set [3] (high-dose group) and in data set [3] (low-dose group) was “highly significant differences” throughout.
